Reference: patent publication US10975078B2, “Fused indazole pyridone compounds as antivirals” (priority 2017, dated 2021)
pEC50: −log10 of the molar value.

Tested on: HBsAg secretion, HepG2-Clone42 cells (Tet-inducible HBV-expressing, HBV ayw strain)
Experiment: HBsAg assay (HBsAg ELISA, secreted HBV sAg from HepG2-Clone42 cells)
Assay type: cell-based
Settings: Hepatitis B virus, read-out: HBsAg (nM), EC50 = concentration at which HBsAg secretion was reduced 50% compared to DMSO control
Protocol: HepG2-Clone42, a Tet-inducible HBV-expressing cell line with a stably integrated 1.3 mer copy of the HBV ayw strain, was generated based on the Tet-inducible HepAD38 cell line with slight modifications. Ladner S K, et al., Antimicrobial Agents and Chemotherapy. 41(8):1715-1720 (1997). HepG2-Clone42 cells were cultured in DMEM/F-12+Glutamax™ (Life Technologies, Carlsbad, Calif., USA), supplemented with 10% fetal bovine serum (Life Technologies), G-418 (Corning, Manassas, Va., USA) at a final concentration of 0.5 mg/mL, and 5 μg/mL Doxycycline (Sigma, St. Louis, Mo., USA) and maintained in 5% CO2 at 37° C.
HepG2-Clone42 cells were seeded into black clear-bottom 96-well plates at a concentration of 6.0×10^4 cells/well. 24 hours post-seeding, the cells were treated with 200 μl/well of media containing five-fold serial dilutions of compounds in DMSO. DMSO alone was used as the no drug control. The final DMSO concentration in all wells was 0.5%.
The HBsAg ELISA kit (Alpha Diagnostic International, San Antonio, Tex., USE, Catalog #4110) was used to determine the level (semi-quantitative) of secreted HBV sAg. The HBSAg ELISA assay was performed following the manufacturer's protocol as described.
Step 1. Pipet 100 μL each of compound or DMSO treated samples into HBsAg ELISA plates. Seal plates and incubate at room temp for 60 minutes.
Step 2. Aspirate samples and wash three times with Wash Buffer. Dispense 100 μL of antibody-HRP conjugate to each well. Incubate at room temp for 30 minutes.
Step 3. Aspirate samples and wash three times with Wash Buffer. Add 100 μL of TMB Substrate to all wells and incubate 15 minutes at room temp.
Step 4. Dispense 100 μL of Stop Solution to each well. Measure absorbance of ELISA plate at 450 nm.
Dose-response curves were generated and the EC50 value was defined as the compound concentration at which HBsAg secretion was reduced 50% compared to the DMSO control.
EC50 values were determined as follows:
Determine the percent of HBsAg secretion inhibition. Calculate the percent inhibition on of HBsAg secretion inhibition using the following equation: […]
where XC is the absorbance signal from compound-treated well; MB is average absorbance signal (background signal) for column 12 (no cells+HBsAg ELISA sample buffer) and MD is average absorbance signal from DMSO-treated wells. Then calculate EC50 values by non-linear regression using a four parameter curve logistic equation.
The curve fit model employed is XLFit Dose Response One Site Model 204: y=(A+((B−A)/(1+(10^((C−x)*D))))) where A is the minimum y value, B is the maximum y value, C is the log EC50 value, and D is the slope factor. In the following table+≥100 nM; 100 nM>++≥1 nM; 1 nM>+++

Row | Compound | EC50
1 | CC(C)(C)C1Cn2nc3c(OCCOC(F)(F)F)cccc3c2-c2cc(=O)c(C(=O)O)cn21 (racemic) [Example 2.9, 6-(tert-butyl)-2-oxo-10-(2-(trifluoromethoxy)ethoxy)-6,7-dihydro-2H-pyrido[2′,1′:3,4]pyrazino[1,2-b]indazole-3-carboxylic Acid] | < 1 nM
2 | CC(C)(C)C1Cn2nc3c(OCCC(F)(F)F)cccc3c2-c2cc(=O)c(C(=O)O)cn21 (racemic) [Example 2.40, 6-(tert-butyl)-2-oxo-10-(3,3,3-trifluoropropoxy)-6,7-dihydro-2H-pyrido[2′,1′:3,4]pyrazino[1,2-b]indazole-3-carboxylic Acid] | < 1 nM
3 | COc1ccc2nn3c(c2c1)-c1cc(=O)c(C(=O)O)cn1C(C(C)(C)C)C3 (single isomer, unassigned) [Example 1.3-II, 6-(tert-butyl)-12-methoxy-2-oxo-6,7-dihydro-2H-pyrido[2′,1′:3,4]pyrazino[1,2-b]indazole-3-carboxylic acid] | 1 to 100 nM
4 | CC(C)(C)C1Cn2nc3c(OCCO)cccc3c2-c2cc(=O)c(C(=O)O)cn21 (racemic) [Example 2.18, 6-(tert-butyl)-10-(2-hydroxyethoxy)-2-oxo-6,7-dihydro-2H-pyrido[2′,1′:3,4]pyrazino[1,2-b]indazole-3-carboxylic Acid] | 1 to 100 nM
5 | COCCCOc1cccc2c3n(nc12)CC(C(C)(C)C)n1cc(C(=O)O)c(=O)cc1-3 (single isomer, unassigned) [Example 2.1-I, 6-(tert-butyl)-10-(3-methoxypropoxy)-2-oxo-6,7-dihydro-2H-pyrido[2′,1′:3,4]pyrazino[1,2-b]indazole-3-carboxylic Acid] | < 1 nM
6 | CC(C)(C)C1Cn2nc3c(OC4COC4)cccc3c2-c2cc(=O)c(C(=O)O)cn21 (racemic) [Example 2.26, 6-(tert-butyl)-10-(oxetan-3-yloxy)-2-oxo-6,7-dihydro-2H-pyrido[2′,1′:3,4]pyrazino[1,2-b]indazole-3-carboxylic Acid] | 1 to 100 nM
7 | CC(C)(C)C1Cn2nc3c(OCC4CCCO4)cccc3c2-c2cc(=O)c(C(=O)O)cn21 (stereo not drawn) [Example 2.25, 6-(tert-butyl)-2-oxo-10-((tetrahydrofuran-2-yl)methoxy)-6,7-dihydro-2H-pyrido[2′,1′:3,4]pyrazino[1,2-b]indazole-3-carboxylic Acid] | 1 to 100 nM
8 | CC1(COc2cccc3c4n(nc23)CC(C(C)(C)C)n2cc(C(=O)O)c(=O)cc2-4)COC1 (racemic) [Example 2.45, 6-(tert-butyl)-10-((3-methyloxetan-3-yl)methoxy)-2-oxo-6,7-dihydro-2H-pyrido[2′,1′:3,4]pyrazino[1,2-b]indazole-3-carboxylic Acid] | 1 to 100 nM
9 | CC(C)(C)C1Cn2nc3c(OCC4CNC4)cccc3c2-c2cc(=O)c(C(=O)O)cn21 (racemic) [Example 2.32, 10-(azetidin-3-ylmethoxy)-6-(tert-butyl)-2-oxo-6,7-dihydro-2H-pyrido[2′,1′:3,4]pyrazino[1,2-b]indazole-3-carboxylic Acid] | > 100 nM
10 | COCCOc1cccc2c3n(nc12)C1CCC(C)(C)C1n1cc(C(=O)O)c(=O)cc1-3 (single isomer, unassigned) [Example 6.2-I, 12-(2-methoxyethoxy)-3,3-dimethyl-7-oxo-2,3,3a,14a-tetrahydro-1H,7H-cyclopenta[5,6]pyrido[2′,1′:3,4]pyrazino[1,2-b]indazole-6-carboxylic Acid] | 1 to 100 nM
11 | CC(C)(C)C1Cn2nc3c(OCC(F)F)cccc3c2-c2cc(=O)c(C(=O)O)cn21 (racemic) [Example 2.10, 6-(tert-butyl)-10-(2,2-difluoroethoxy)-2-oxo-6,7-dihydro-2H-pyrido[2′,1′:3,4]pyrazino[1,2-b]indazole-3-carboxylic Acid] | < 1 nM
12 | CC(C)(C)C1Cn2nc3c(OCC4CCOCC4)cccc3c2-c2cc(=O)c(C(=O)O)cn21 (racemic) [Example 2.44, 6-(tert-butyl)-2-oxo-10-((tetrahydro-2H-pyran-4-yl)methoxy)-6,7-dihydro-2H-pyrido[2′,1′:3,4]pyrazino[1,2-b]indazole-3-carboxylic Acid] | 1 to 100 nM

Same assay, conditions: read-out: HBsAg, EC50 = concentration at which HBsAg secretion was reduced 50% compared to DMSO control

Row | Compound | pEC50
13 | CC(C)(C)C1Cn2nc3c(OC[C@@H]4CCC(=O)N4)cccc3c2-c2cc(=O)c(C(=O)O)cn21 (single isomer, unassigned) [Example 2.33-II] | < 7.00
14 | COc1ccc2nn3c(c2c1)-c1cc(=O)c(C(=O)O)cn1C(C(C)(C)C)C3 (single isomer, unassigned) [Example 1.3-I, 6-(tert-butyl)-12-methoxy-2-oxo-6,7-dihydro-2H-pyrido[2′,1′:3,4]pyrazino[1,2-b]indazole-3-carboxylic acid] | 7.00 to 9.00
15 | COc1cccc2c3n(nc12)C1COC(C)(C)C1n1cc(C(=O)O)c(=O)cc1-3 (single isomer, unassigned) [Example 10.1-I, 12-methoxy-3,3-dimethyl-7-oxo-1,3,3a,14a-tetrahydro-7H-furo[3′,4′:5,6]pyrido[2′,1′:3,4]pyrazino[1,2-b]indazole-6-carboxylic Acid] | < 7.00
16 | COc1cccc2c3n(nc12)C1CCC(C)(C)C1n1cc(C(=O)O)c(=O)cc1-3 (single isomer, unassigned) [Example 5.1-II, 12-methoxy-3,3-dimethyl-7-oxo-2,3,3a,14a-tetrahydro-1H,7H-cyclopenta[5,6]pyrido[2′,1′:3,4]pyrazino[1,2-b]indazole-6-carboxylic Acid] | < 7.00
17 | COc1cccc2c3n(nc12)CC(C(C)(C)CO)n1cc(C(=O)O)c(=O)cc1-3 (single isomer, unassigned) [Example 3.1-II, 6-(1-hydroxy-2-methylpropan-2-yl)-10-methoxy-2-oxo-6,7-dihydro-2H-pyrido[2′,1′:3,4]pyrazino[1,2-b]indazole-3-carboxylic Acid] | 7.00 to 9.00
18 | COCCCOc1cccc2c3n(nc12)CC(C(C)(C)C)n1cc(C(=O)O)c(=O)c(F)c1-3 (single isomer, unassigned) [Example 8.1-II, 6-(tert-butyl)-1-fluoro-10-(3-methoxypropoxy)-2-oxo-6,7-dihydro-2H-pyrido[2′,1′:3,4]pyrazino[1,2-b]indazole-3-carboxylic Acid] | 7.00 to 9.00
19 | COc1cccc2c3n(nc12)CC(C(C)(C)CO)n1cc(C(=O)O)c(=O)cc1-3 (single isomer, unassigned) [Example 3.1-I, 6-(1-hydroxy-2-methylpropan-2-yl)-10-methoxy-2-oxo-6,7-dihydro-2H-pyrido[2′,1′:3,4]pyrazino[1,2-b]indazole-3-carboxylic Acid] | < 7.00
20 | COCCCOc1cccc2c3n(nc12)CC(C(C)(C)COC)n1cc(C(=O)O)c(=O)cc1-3 (single isomer, unassigned) [Example 7.1-I, 6-(1-methoxy-2-methylpropan-2-yl)-10-(3-methoxypropoxy)-2-oxo-6,7-dihydro-2H-pyrido[2′,1′:3,4]pyrazino[1,2-b]indazole-3-carboxylic Acid] | < 7.00
21 | COCCOc1cccc2c3n(nc12)CC(C(C)(C)C)n1cc(C(=O)O)c(=O)cc1-3 (single isomer, unassigned) [Example 2.2-II, 6-(tert-butyl)-10-(2-methoxyethoxy)-2-oxo-6,7-dihydro-2H-pyrido[2′,1′:3,4]pyrazino[1,2-b]indazole-3-carboxylic Acid] | > 9.00
